From patent US9598416B2, “Substituted benzothienyl-pyrrolotriazines and uses thereof in the treatment cancer” (Bayer Intellectual Property GmbH, priority 2011, dated 2017)
Structures can show the parent of a compound that is named as a salt. Where two headings read alike, the source gives them in different places.

Tests used:
human FGFR-3 = human FGFR-3 (Homo sapiens (Human), UniProt P22607); test: FGFR-3 kinase assay (TR-FRET); type: biochemical; settings: 10 μM ATP; compounds of the invention
human mTOR = human mTOR (Homo sapiens (Human), UniProt P42345); test: mTOR kinase assay (TR-FRET, for comparative purposes); type: biochemical; settings: for inhibition at 1 µM: read-out: mTOR % inhibition @ 1 μM
Excerpt: mTOR inhibitory activity of the compounds of the present invention was quantified employing the TR-FRET based mTOR assay as described in the following paragraphs: Recombinant fusion tagged mTOR protein [glutathione-S-transferase (GST) fused to human mTOR amino acids from 1360 to 2549], expressed in insect cells and purified by glutathione-sepharose affinity chromatography, was purchased from Invitrogen (Cat.-No. 4753) and used as enzyme. As substrate for the kinase reaction, a recombinant fusion protein of GFP and 4E-BP1 (purchased from Invitrogen, Cat.-No. PV4759) was used. Test compounds were dissolved in DMSO to generate 10 mM stock solutions. […] The resulting mixture was incubated for 1 h at 22° C. to allow formation of the complex between the phosphorylated substrate and the Tb-chelate labelled antibody. Subsequently, the amount of phosphorylated substrate was evaluated by measurement of the resonance energy transfer from the Tb-chelate to the GFP. For this, the fluorescence emissions at 495 nm and 520 nm after excitation at 340 nm was measured in an Envision 2104 multilabel reader (Perkin-Elmer). The ratio of the emissions at 520 nm and at 495 nm was taken as the measure for the amount of phosphorylated substrate.

[1] = 1 μM test compound, mean inhibition values

human FGFR-3, sequence (P22607 397-806): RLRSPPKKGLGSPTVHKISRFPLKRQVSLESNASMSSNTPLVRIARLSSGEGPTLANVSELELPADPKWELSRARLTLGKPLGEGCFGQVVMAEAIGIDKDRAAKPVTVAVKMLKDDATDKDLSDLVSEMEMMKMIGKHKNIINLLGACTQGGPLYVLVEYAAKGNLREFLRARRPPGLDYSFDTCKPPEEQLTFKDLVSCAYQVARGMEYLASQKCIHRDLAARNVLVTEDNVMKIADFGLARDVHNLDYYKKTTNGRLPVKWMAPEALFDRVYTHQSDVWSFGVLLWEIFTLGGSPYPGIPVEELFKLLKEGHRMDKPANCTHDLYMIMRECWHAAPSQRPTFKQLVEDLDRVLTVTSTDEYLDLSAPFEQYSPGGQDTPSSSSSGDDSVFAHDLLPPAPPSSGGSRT
human mTOR, sequence (P42345 1360-2549): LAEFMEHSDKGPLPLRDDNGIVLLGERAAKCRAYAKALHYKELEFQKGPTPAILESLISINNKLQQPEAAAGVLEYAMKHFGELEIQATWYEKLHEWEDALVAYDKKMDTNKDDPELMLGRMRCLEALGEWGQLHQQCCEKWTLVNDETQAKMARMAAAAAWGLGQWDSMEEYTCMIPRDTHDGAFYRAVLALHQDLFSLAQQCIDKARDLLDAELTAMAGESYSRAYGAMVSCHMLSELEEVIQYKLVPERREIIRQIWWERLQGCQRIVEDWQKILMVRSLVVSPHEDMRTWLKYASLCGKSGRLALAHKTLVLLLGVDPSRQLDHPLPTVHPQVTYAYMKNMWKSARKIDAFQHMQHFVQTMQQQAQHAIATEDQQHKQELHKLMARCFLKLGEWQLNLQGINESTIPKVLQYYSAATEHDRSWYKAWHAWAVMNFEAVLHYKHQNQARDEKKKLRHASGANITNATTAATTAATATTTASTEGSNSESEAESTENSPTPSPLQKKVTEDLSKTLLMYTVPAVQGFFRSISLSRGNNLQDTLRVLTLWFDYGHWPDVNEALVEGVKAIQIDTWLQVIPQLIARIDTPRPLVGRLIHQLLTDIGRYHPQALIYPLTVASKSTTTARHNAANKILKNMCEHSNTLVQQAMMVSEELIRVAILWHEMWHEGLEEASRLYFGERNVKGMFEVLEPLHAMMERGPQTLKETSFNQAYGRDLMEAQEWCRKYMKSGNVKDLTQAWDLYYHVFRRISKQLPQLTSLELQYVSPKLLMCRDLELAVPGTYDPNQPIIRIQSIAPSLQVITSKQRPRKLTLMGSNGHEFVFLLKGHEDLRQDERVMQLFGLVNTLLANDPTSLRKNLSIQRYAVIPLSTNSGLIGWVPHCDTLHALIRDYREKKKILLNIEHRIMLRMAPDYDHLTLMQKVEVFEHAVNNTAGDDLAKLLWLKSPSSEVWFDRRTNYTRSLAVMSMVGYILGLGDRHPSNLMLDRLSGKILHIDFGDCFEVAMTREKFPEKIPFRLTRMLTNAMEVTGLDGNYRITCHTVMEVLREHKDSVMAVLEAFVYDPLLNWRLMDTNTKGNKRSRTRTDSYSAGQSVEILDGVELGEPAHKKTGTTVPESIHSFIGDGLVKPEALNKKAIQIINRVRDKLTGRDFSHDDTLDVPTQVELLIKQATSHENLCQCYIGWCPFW

| Structure (SMILES) | IC50 (human FGFR-3) | inhibition at 1 µM (human mTOR) | mTOR % inhibition @ 1 μM (human mTOR; [1]) | inhibition at 1 µM (human mTOR; [1]) |
| --- | --- | --- | --- | --- |
| COc1cc(C)cc2cc(-c3c(CNCCO)cn4ncnc(N)c34)sc12 [Example 10, 2-({[4-Amino-5-(7-methoxy-5-methyl-1-benzothiophen-2-yl)pyrrolo[2,1-f][1,2,4]triazin-6-yl]-methyl}amino)ethanol dihydrochloride] | 1.4 nM | 10.3% |  |  |
| COc1cc(C)cc2cc(-c3c(CN4CCNC(=O)C4)cn4ncnc(N)c34)sc12 [Example 11, 4-{[4-Amino-5-(7-methoxy-5-methyl-1-benzothiophen-2-yl)pyrrolo[2,1-f][1,2,4]triazin-6-yl]-methyl}piperazin-2-one] | 0.4 nM |  | no inhib. effect detect. |  |
| CNC(=O)CNCc1cn2ncnc(N)c2c1-c1cc2cc(C)cc(OC)c2s1 [Example 13, N^2-{[4-Amino-5-(7-methoxy-5-methyl-1-benzothiophen-2-yl)pyrrolo[2,1-f][1,2,4]triazin-6-yl]-methyl}-N-methylglycinamide] | 15.1 nM |  |  | 5.3% |
| COc1cc(C)cc2cc(-c3c(CN(C)CC(N)=O)cn4ncnc(N)c34)sc12 [Example 14, N^2-{[4-Amino-5-(7-methoxy-5-methyl-1-benzothiophen-2-yl)pyrrolo[2,1-f][1,2,4]triazin-6-yl]-methyl}-N^2-methylglycinamide] | 0.8 nM |  |  | 0.3% |
| CCOC(=O)CNCc1cn2ncnc(N)c2c1-c1cc2cc(C)cc(OC)c2s1 [Example 15, Ethyl N-{[4-amino-5-(7-methoxy-5-methyl-1-benzothiophen-2-yl)pyrrolo[2,1-f][1,2,4]triazin-6-yl]-methyl}glycinate dihydrochloride] | 87.1 nM | 4% |  |  |
| COc1cc(C)cc2cc(-c3c(CNCC(N)=O)cn4ncnc(N)c34)sc12 [Example 16, N^2-{[4-Amino-5-(7-methoxy-5-methyl-1-benzothiophen-2-yl)pyrrolo[2,1-f][1,2,4]triazin-6-yl]-methyl}glycinamide] | 2.3 nM |  |  | 8.8% |
| COc1cc(C)cc2cc(-c3c(CNCC(C)(C)O)cn4ncnc(N)c34)sc12 [Example 17, 1-({[4-Amino-5-(7-methoxy-5-methyl-1-benzothiophen-2-yl)pyrrolo[2,1-f][1,2,4]triazin-6-yl]-methyl}amino)-2-methylpropan-2-ol dihydrochloride] | 1.8 nM |  | no inhib. effect detect. |  |
| COc1cc(C)cc2cc(-c3c(CNCCCO)cn4ncnc(N)c34)sc12 [Example 20, 3-({[4-Amino-5-(7-methoxy-5-methyl-1-benzothiophen-2-yl)pyrrolo[2,1-f][1,2,4]triazin-6-yl]-methyl}amino)propan-1-ol dihydrochloride] | 15.2 nM |  | no inhib. effect detect. |  |
| COc1cc(C)cc2cc(-c3c(CN4CCN(C(C)=O)CC4)cn4ncnc(N)c34)sc12 [Example 21, 1-(4-{[4-Amino-5-(7-methoxy-5-methyl-1-benzothiophen-2-yl)pyrrolo[2,1-f][1,2,4]triazin-6-yl]-methyl}piperazin-1-yl)ethanone] | 27.9 nM |  | no inhib. effect detect. |  |
| COc1cc(C)cc2cc(-c3c(CN4CCN(C(=O)OC(C)(C)C)CC4)cn4ncnc(N)c34)sc12 [Example 22, tert-Butyl 4-{[4-amino-5-(7-methoxy-5-methyl-1-benzothiophen-2-yl)pyrrolo[2,1-f][1,2,4]triazin-6-yl]methyl}piperazine-1-carboxylate trifluoroacetate] | 10.8 nM | 1.6% |  |  |
| COc1cc(C)cc2cc(-c3c(CN4CCOCC4)cn4ncnc(N)c34)sc12 [Example 23, 5-(7-Methoxy-5-methyl-1-benzothiophen-2-yl)-6-(morpholin-4-ylmethyl)pyrrolo[2,1-f][1,2,4]triazin-4-amine] | 17.4 nM |  |  | 2% |
| COc1cc(C)cc2cc(-c3c(CNCCNC(C)=O)cn4ncnc(N)c34)sc12 [Example 24, N-[2-({[4-Amino-5-(7-methoxy-5-methyl-1-benzothiophen-2-yl)pyrrolo[2,1-f][1,2,4]triazin-6-yl]-methyl}amino)ethyl]acetamide trifluoroacetate] | 8.7 nM | 0.3% |  |  |
| COc1cc(C)cc2cc(-c3c(CN4CCNCC4)cn4ncnc(N)c34)sc12 [Example 25, 5-(7-Methoxy-5-methyl-1-benzothiophen-2-yl)-6-(piperazin-1-ylmethyl)pyrrolo[2,1-f][1,2,4]triazin-4-amine trihydrochloride] | 0.4 nM |  | no inhib. effect detect. |  |
| COc1cc(C)cc2cc(-c3c(CN[C@H]4CCNC4=O)cn4ncnc(N)c34)sc12 [Example 27, (3S)-3-({[4-Amino-5-(7-methoxy-5-methyl-1-benzothiophen-2-yl)pyrrolo[2,1-f][1,2,4]triazin-6-yl]-methyl}amino)pyrrolidin-2-one dihydrochloride] | 0.5 nM | 5% |  |  |
| CCOCc1cn2ncnc(N)c2c1-c1cc2cc(C)cc(OC)c2s1 [Example 28, 6-(Ethoxymethyl)-5-(7-methoxy-5-methyl-1-benzothiophen-2-yl)pyrrolo[2,1-f][1,2,4]triazin-4-amine] | 14.2 nM |  |  | 35.5% |
| Cc1ccc2sc(-c3c(CN4CCNC(=O)C4)cn4ncnc(N)c34)cc2c1 [Example 29, 4-{[4-Amino-5-(5-methyl-1-benzothiophen-2-yl)pyrrolo[2,1-f][1,2,4]triazin-6-yl]methyl}piperazin-2-one] | 18.7 nM |  |  | 0.6% |
| COc1cccc2cc(-c3c(CN4CCNC(=O)C4)cn4ncnc(N)c34)sc12 [Example 30, 4-{[4-Amino-5-(7-methoxy-1-benzothiophen-2-yl)pyrrolo[2,1-f][1,2,4]triazin-6-yl]methyl}piperazin-2-one] | 3.1 nM |  |  | 1.6% |
| COc1cc(Cl)cc2cc(-c3c(CN4CCNC(=O)C4)cn4ncnc(N)c34)sc12 [Example 31, 4-{[4-Amino-5-(5-chloro-7-methoxy-1-benzothiophen-2-yl)pyrrolo[2,1-f][1,2,4]triazin-6-yl]methyl}-piperazin-2-one] | 0.3 nM |  |  | 9.1% |
